Measured values: the NIST ThermoML archive (doi:10.1016/j.fluid.2018.09.023)
Numbers after ± are expanded uncertainties.

Test: Solid-liquid equilibrium temperature
Settings: 101 kPa, visual observation

Going from `O=C(Oc1ccccc1)Oc1ccccc1` [diphenyl carbonate] to `COC(=O)OC` [dimethyl carbonate], the Solid-liquid equilibrium temperature falls from 352.7 ± 4 K to 278.11 ± 4 K.

Test: not given
Settings: 298.15 K; 101.33 kPa; Liquid; Vibrating tube method

First: CC(C)O [propan-2-ol]
Second: COC(=O)OC [dimethyl carbonate]
The mass density of the first is lower: 780.79 ± 0.13 kg/m3 for the first, 1063.26 ± 0.08 kg/m3 for the second.

Compared with `CCCOC(=O)OCCC` [dipropyl carbonate], `CCOC(=O)OCC` [diethyl carbonate] is higher in mass density: 938.35 ± 0.13 kg/m3 for the first, 969.18 ± 0.07 kg/m3 for the second.

Going from `CCCO` [propan-1-ol] to `CCO` [ethanol], the mass density falls from 800.06 ± 0.12 kg/m3 to 785.02 ± 0.13 kg/m3.
